From paper PMC6571122 (Journal of medicinal chemistry, 2019)
Several values for one entry are separate records, joined by “and”; a condition that tells them apart may be missing. Equal entries are not always repeated.

What was measured:
[1] = measured LogP octanol/buffer; type: physicochemical; conditions: pH 11
in vitro = conditions: human, liver microsomes
[2] = mouse liver microsome intrinsic clearance; type: in vitro ADME; conditions: liver microsomes
thermodynamic solubility = type: physicochemical
kinetic solubility = type: physicochemical; conditions: pH 7.4, Solubility (kinetic)
hERG = hERG (Homo sapiens, UniProt Q12809); assay: CEREP 44 safety screen, [3H] Dofetilide binding; conditions: probe [3H] Dofetilide
brain to blood ratio = conditions: female, CD1, mouse, in vivo, 10 mg/kg

hERG, sequence (Q12809 whole entry): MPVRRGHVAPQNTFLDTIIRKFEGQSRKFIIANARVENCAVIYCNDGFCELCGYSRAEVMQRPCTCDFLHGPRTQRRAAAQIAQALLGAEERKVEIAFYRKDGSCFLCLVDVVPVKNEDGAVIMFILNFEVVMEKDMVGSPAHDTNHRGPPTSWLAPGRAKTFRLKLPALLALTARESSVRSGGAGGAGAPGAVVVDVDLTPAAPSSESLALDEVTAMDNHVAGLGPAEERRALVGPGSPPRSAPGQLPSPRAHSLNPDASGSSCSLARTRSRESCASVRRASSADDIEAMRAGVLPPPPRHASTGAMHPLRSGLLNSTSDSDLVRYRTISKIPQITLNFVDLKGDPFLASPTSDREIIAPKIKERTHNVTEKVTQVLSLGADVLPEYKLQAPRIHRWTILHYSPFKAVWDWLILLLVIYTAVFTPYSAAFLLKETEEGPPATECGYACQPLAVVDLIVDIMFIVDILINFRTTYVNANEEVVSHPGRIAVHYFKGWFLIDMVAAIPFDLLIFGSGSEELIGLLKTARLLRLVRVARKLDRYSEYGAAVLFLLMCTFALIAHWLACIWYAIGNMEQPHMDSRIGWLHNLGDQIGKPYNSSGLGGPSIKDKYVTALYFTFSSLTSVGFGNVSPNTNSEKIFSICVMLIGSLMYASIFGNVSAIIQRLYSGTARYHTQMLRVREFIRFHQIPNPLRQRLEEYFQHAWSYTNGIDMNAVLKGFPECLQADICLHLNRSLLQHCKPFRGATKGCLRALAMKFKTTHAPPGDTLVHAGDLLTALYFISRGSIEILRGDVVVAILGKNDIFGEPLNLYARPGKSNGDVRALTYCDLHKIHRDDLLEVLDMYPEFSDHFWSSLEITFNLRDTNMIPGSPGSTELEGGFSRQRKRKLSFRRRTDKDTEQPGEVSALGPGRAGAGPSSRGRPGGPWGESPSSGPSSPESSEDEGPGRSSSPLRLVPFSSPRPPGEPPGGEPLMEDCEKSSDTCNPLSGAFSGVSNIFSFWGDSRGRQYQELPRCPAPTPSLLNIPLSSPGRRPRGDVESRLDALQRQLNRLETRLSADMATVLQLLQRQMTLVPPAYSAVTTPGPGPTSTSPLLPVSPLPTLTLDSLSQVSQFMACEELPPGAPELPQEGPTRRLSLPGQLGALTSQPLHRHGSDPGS

## CCc1nc(N)nc(N)c1-c1ccc(Cl)cc1 [Compound 1, Pyrimethamine, reference compound]
[1]
  logP: 2.71
In vitro
  CLint scaled: < 8.6 mL/min/kg

## Nc1ncc(N2CCN(c3cccc(-c4cnc(C5CC5)nc4)c3)CC2)c(N)n1 [Compound 31, 5-(4-(3-(2-Cyclopropylpyrimidin-5-yl)phenyl)piperazin-1-yl)pyrimidine-2,4-diamine]
In vitro
  CLint scaled at 1 h, 10 µM: 17.4 mL/min/kg

## Nc1ncc(N2CCN(c3cccc(-c4ccccn4)c3)CC2)c(N)n1 [Compound 22, 5-(4-(3-(pyridin-2-yl)phenyl)piperazin-1-yl)pyrimidine-2,4-diamine]
In vitro
  CLint scaled at 1 h, 10 µM: 17.7 mL/min/kg

## Cc1ncc(-c2cccc(N3CCN(c4cnc(N)nc4N)CC3)c2)cn1 [Compound 29, 5-(4-(3-(2-methylpyrimidin-5-yl)phenyl)piperazin-1-yl)pyrimidine-2,4-diamine]
In vitro
  CLint scaled: < 8.6 mL/min/kg
[2]
  CLint scaled at 1 h, 10 µM: 431 mL/min/kg

## Nc1ncc(N2CCN(c3cccc(-c4ncccn4)c3)CC2)c(N)n1 [Compound 25, 5-(4-(3-(Pyrimidin-2-yl)phenyl)piperazin-1-yl)pyrimidine-2,4-diamine]
In vitro
  CLint scaled: < 8.6 mL/min/kg

## Nc1ncc(N2CCN(c3cccc(-c4ccnnc4)c3)CC2)c(N)n1 [Compound 28, 5-(4-(3-(Pyridazin-4-yl)phenyl)piperazin-1-yl)pyrimidine-2,4-diamine]
In vitro
  CLint scaled: < 8.6 mL/min/kg

## Nc1ncc(N2CCN(c3cccc(-c4cnc(C(F)(F)F)nc4)c3)CC2)c(N)n1 [Compound 30, 5-(4-(3-(2-(Trifluoromethyl)pyrimidin-5-yl)phenyl)piperazin-1-yl)pyrimidine-2,4-diamine]
In vitro
  CLint scaled at 1 h, 10 µM: 10.5 mL/min/kg

## Nc1ncc(N2CCN(c3cccc(-c4ccccc4)c3)CC2)c(N)n1 [Compound 2]
Thermodynamic solubility
  solubility thermodynamic: < 4 µM
[1]
  logP: 3.38
In vitro
  CLint scaled at 1 h, 10 µM: 28.4 mL/min/kg
Kinetic solubility
  solubility kinetic: < 4 µM

## Nc1ncc(N2CCN(c3cccc(-c4ccncc4)c3)CC2)c(N)n1 [Compound 24, 5-(4-(3-(Pyridin-4-yl)phenyl)piperazin-1-yl)pyrimidine-2,4-diamine]
In vitro
  CLint scaled at 1 h, 10 µM: 18.7 mL/min/kg

## Nc1ncc(N2CCN(c3cccc(-c4cnccn4)c3)CC2)c(N)n1 [Compound 27, 5-(4-(3-(Pyrazin-2-yl)phenyl)piperazin-1-yl)pyrimidine-2,4-diamine]
In vitro
  CLint scaled: < 8.6 mL/min/kg

## COc1ncc(-c2cccc(N3CCN(c4cnc(N)nc4N)CC3)c2)cn1 [Compound 3, 5-(4-(3-(2-Methoxypyrimidin-5-yl)phenyl)piperazin-1-yl)pyrimidine-2,4-diamine]
In vitro
  CLint scaled: < 8.6 mL/min/kg
hERG
  inhibition at 10 µM: 60%
Brain to blood ratio
  Kp at 0.5 h: 1.7 ± 0.6
  concentration at 0.5 h: 2560 ng/g and 1610 ng/mL
[2]
  CLint scaled at 1 h, 10 µM: 56.3 mL/min/kg

## Nc1ncc(N2CCN(c3cccc(-c4cncnc4)c3)CC2)c(N)n1 [Compound 26, 5-(4-(3-(Pyrimidin-5-yl)phenyl)piperazin-1-yl)pyrimidine-2,4-diamine]
In vitro
  CLint scaled: < 8.6 mL/min/kg
[2]
  CLint scaled at 1 h, 10 µM: 2700 mL/min/kg
